Tests used:
FAAH [1] = molecular target: T1, FAAH (Mus musculus, UniProt O08914); assay: In vitro competitive activity-based protein profiling, FAAH, mouse; details: read-out: FAAH % inh. 1 μM (mouse)
T1 sequence (O08914 1-579): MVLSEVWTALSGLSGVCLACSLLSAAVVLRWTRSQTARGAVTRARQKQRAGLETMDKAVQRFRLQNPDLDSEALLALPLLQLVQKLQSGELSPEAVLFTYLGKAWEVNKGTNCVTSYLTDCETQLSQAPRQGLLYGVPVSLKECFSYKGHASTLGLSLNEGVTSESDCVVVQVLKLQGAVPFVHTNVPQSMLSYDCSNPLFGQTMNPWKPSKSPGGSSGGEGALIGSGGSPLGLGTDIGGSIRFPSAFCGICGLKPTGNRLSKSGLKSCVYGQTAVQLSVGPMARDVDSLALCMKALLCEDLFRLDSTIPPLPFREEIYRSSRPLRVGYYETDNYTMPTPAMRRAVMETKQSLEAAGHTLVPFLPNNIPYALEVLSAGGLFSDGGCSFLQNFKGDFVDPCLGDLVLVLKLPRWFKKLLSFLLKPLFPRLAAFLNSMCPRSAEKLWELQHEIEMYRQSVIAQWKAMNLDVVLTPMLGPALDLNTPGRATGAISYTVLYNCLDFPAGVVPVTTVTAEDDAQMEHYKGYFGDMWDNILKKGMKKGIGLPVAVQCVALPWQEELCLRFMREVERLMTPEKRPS

FAAH [2] = molecular target: T2, FAAH (Homo sapiens, UniProt O00519); assay: In vitro competitive activity-based protein profiling, FAAH, human; details: for inhibition at 1 µM: read-out: FAAH % inh. 1 μM (human)
T2 sequence (O00519 1-579): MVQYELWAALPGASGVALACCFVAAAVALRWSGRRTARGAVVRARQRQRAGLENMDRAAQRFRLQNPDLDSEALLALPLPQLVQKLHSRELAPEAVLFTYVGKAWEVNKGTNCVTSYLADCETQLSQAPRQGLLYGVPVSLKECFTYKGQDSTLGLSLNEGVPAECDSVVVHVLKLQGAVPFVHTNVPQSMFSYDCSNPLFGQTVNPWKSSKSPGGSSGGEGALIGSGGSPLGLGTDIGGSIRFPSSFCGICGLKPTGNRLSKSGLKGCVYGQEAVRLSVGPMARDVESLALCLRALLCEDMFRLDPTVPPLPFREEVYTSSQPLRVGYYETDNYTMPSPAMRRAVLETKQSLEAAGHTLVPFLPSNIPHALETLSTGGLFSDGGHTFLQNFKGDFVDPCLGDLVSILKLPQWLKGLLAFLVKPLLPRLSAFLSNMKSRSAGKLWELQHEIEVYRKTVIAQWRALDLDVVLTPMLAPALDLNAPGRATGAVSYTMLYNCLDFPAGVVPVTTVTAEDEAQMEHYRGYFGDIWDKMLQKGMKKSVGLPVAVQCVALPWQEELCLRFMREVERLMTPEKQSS
Method: (§1) Biological Evaluation In Vitro Competitive Activity-Based Protein Profiling.
(§2) Proteomes (mouse brain membrane fraction for mouse assays; human prefrontal cortex membrane fractions for human assays) (50 mL, 1.0 mg/mL total protein concentration) were preincubated with varying concentrations of inhibitors at 37° C. After 30 min, FP-Rh (1.0 mL, 50 mM in DMSO) was added and the mixture was incubated for another 30 min at 37° C. Reactions were quenched with SDS loading buffer (15 μL—4λ) and run on SDS-PAGE.

MAGL [3] = molecular target: T3, MAGL (Mus musculus, UniProt O35678); assay: In vitro competitive activity-based protein profiling, MAGL, mouse; details: read-out: MAGL % inh. 1 μM (mouse)
T3 sequence (O35678 1-303): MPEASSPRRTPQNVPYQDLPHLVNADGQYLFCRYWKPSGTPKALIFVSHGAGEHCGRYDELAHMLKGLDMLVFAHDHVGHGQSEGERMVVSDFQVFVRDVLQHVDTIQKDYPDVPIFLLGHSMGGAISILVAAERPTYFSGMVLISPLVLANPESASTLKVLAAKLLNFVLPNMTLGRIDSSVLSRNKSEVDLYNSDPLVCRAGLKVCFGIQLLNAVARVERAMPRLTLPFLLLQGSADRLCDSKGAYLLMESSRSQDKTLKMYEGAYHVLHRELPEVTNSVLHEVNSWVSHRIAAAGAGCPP

FAAH [4] = molecular target: T1, FAAH; assay: Mouse brain proteomes from inhibitor treated mice (oral gavage, sacrificed 4 h after administration), FAAH; type: in vivo; design: mouse brain membrane fraction for mouse assays; from tissue; host or cells: mouse brain (membrane fraction in vitro; brain proteomes of treated C57Bl/6J mice in vivo); details: 5 mg/kg oral gavage, brain proteome 4 h after administration, read-out: FAAH % inh. 5 mg/kg (mouse)
MAGL [5] = molecular target: T4, MAGL (Homo sapiens, UniProt Q99685); assay: In vitro competitive activity-based protein profiling, MAGL, human; details: read-out: MAGL % inh. 1 μM (human)
T4 sequence (Q99685 1-303): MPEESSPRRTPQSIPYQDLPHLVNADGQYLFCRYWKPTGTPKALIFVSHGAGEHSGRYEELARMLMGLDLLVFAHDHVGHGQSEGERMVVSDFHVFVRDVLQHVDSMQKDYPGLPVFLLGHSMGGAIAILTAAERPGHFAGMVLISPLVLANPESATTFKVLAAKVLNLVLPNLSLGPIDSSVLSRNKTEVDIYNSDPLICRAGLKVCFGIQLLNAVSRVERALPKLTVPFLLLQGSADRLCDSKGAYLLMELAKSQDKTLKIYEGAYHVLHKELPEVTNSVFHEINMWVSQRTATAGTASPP
Method: as §1, §2

MAGL [6] = molecular target: T3, MAGL; assay: Mouse brain proteomes from inhibitor treated mice (oral gavage, sacrificed 4 h after administration); type: in vivo; design: mouse brain membrane fraction for mouse assays; from tissue; host or cells: mouse brain (membrane fraction in vitro; brain proteomes of treated C57Bl/6J mice in vivo); details: 5 mg/kg oral gavage, brain proteome 4 h after administration, read-out: MAGL % inh. 5 mg/kg (mouse)

Compound	inhibition at 1 µM (FAAH [1]) [%]	inhibition at 1 µM (FAAH [2]) [%]	inhibition at 1 µM (MAGL [3]) [%]	inhibition at 5 mg/kg (FAAH [4]) [%]	inhibition at 1 µM (MAGL [5]) [%]	inhibition at 5 mg/kg (MAGL [6]) [%]	IC50 (FAAH [2]) [µM]
O=C(O)c1ccn(C(=O)N2CCN(Cc3ccc(C(F)(F)F)cc3Cl)CC2)n1 [Example 91, 1-(4-(2-chloro-4-(trifluoromethyl)benzyl)piperazine-1-carbonyl)-1H-pyrazole-3-carboxylic acid]	0 to 25	0 to 25	> 75	0 to 25	> 75	0 to 25	
O=C(O)c1ccn(C(=O)N2CCN(Cc3ccc(C(F)(F)F)cc3N3CC[C@H](F)C3)CC2)n1 [Example 92, (S)-1-(4-(2-(3-fluoropyrrolidin-1-yl)-4-(trifluoromethyl)benzyl)-piperazine-1-carbonyl)-1H-pyrazole-3-carboxylic acid]	0 to 25	0 to 25	> 75	0 to 25	> 75	0 to 25	1 to 10
O=C(O)c1ccn(C(=O)N2CCC3(CCCN3Cc3ccc(C(F)(F)F)cc3N3CCCC3)CC2)n1 [Example 93, 1-(1-(2-(pyrrolidin-1-yl)-4-(trifluoromethyl)benzyl)-1,8-diazaspiro[4.5]decane-8-carbonyl)-1H-pyrazole-3-carboxylic acid]	0 to 25	0 to 25	> 75	0 to 25	> 75	0 to 25	1 to 10
C[C@@H]1CCCN1c1cc(C(F)(F)F)ccc1CN1CCN(C(=O)n2ccc(C(=O)O)n2)CC1 [Example 95, (R)-1-(4-(2-(2-methylpyrrolidin-1-yl)-4-(trifluoromethyl)benzyl)piperazine-1-carbonyl)-1H-pyrazole-3-carboxylic acid]	0 to 25	0 to 25	> 75	0 to 25	> 75	0 to 25	
O=C(O)c1ccn(C(=O)N2CCN(Cc3cccc(Oc4ccc(Cl)cc4)c3)CC2)n1 [Example 98, 1-(4-(3-(4-chlorophenoxy)benzyl)piperazine-1-carbonyl)-1H-pyrazole-3-carboxylic acid]	> 75	> 75	> 75	0 to 25	> 75	0 to 25	0.1 to 1
O=C(O)c1ccn(C(=O)N2CCN(Cc3ccc(C(F)(F)F)cc3N3CCCCC3)CC2)n1 [Example 100, 1-(4-(2-(piperidin-1-yl)-4-(trifluoromethyl)benzyl)piperazine-1-carbonyl)-1H-pyrazole-3-carboxylic acid]	0 to 25	0 to 25	> 75	0 to 25	> 75	0 to 25	1 to 10
O=C(O)c1ccn(C(=O)N2CCN(Cc3ccc(C(F)(F)F)cc3N3CC[C@@H](F)C3)CC2)n1 [Example 101, (R)-1-(4-(2-(3-fluoropyrrolidin-1-yl)-4-(trifluoromethyl)benzyl)piperazine-1-carbonyl)-1H-pyrazole-3-carboxylic acid]	0 to 25	0 to 25	> 75	0 to 25	> 75	0 to 25	
C[C@H]1CCCN1c1cc(C(F)(F)F)ccc1CN1CCN(C(=O)n2ccc(C(=O)O)n2)CC1 [Example 104, (S)-1-(4-(2-(2-methylpyrrolidin-1-yl)-4-(trifluoromethyl)benzyl)piperazine-1-carbonyl)-1H-pyrazole-3-carboxylic acid]	0 to 25	0 to 25	> 75	0 to 25	> 75	0 to 25	
O=C(O)c1ccn(C(=O)N2CCN(Cc3ccc(Cl)cc3N3C4CCC3COC4)CC2)n1 [Example 105, 1-(4-(2-(3-oxa-8-azabicyclo[3.2.1]octan-8-yl)-4-chlorobenzyl)piper-azine-1-carbonyl)-1H-pyrazole-3-carboxylic acid]	0 to 25	0 to 25	> 75	0 to 25	> 75	0 to 25	
O=C(O)c1ccn(C(=O)N2CCN(Cc3ccc(C(F)(F)F)cc3N3CC4COCC4C3)CC2)n1 (stereo not shown) [Example 106, 1-(4-(2-(tetrahydro-1H-furo[3,4-c]pyrrol-5(3H)-yl)-4-(trifluoromethyl)benzyl)piperazine-1-carbonyl)-1H-pyrazole-3-carboxylic acid]	0 to 25	0 to 25	> 75	0 to 25	> 75	0 to 25	
O=C(O)c1ccn(C(=O)N2CCN(Cc3ccc(Cl)cc3N3CCCC3)CC2)n1 [Example 107, 1-(4-(4-chloro-2-(pyrrolidin-1-yl)benzyl)piperazine-1-carbonyl)-1H-pyrazole-3-carboxylic acid]	0 to 25	0 to 25	> 75	0 to 25	> 75	0 to 25	
CC(C)(O)C1CCN(c2cc(C(F)(F)F)ccc2CN2CCN(C(=O)n3ccc(C(=O)O)n3)CC2)CC1 [Example 109, 1-(4-(2-(4-(2-hydroxypropan-2-yl)piperidin-1-yl)-4-(trifluoromethyl)benzyl)piperazine-1-carbonyl)-1H-pyrazole-3-carboxylic acid]	0 to 25	0 to 25	> 75	0 to 25	> 75	0 to 25	
O=C(O)c1ccn(C(=O)N2CCN(Cc3ccc(Cl)cc3N3CC4COCC4C3)CC2)n1 (stereo not shown) [Example 111, 1-(4-(4-chloro-2-(tetrahydro-1H-furo[3,4-c]pyrrol-5(3H)-yl)benzyl)piperazine-1-carbonyl)-1H-pyrazole-3-carboxylic acid]	0 to 25	0 to 25	> 75	0 to 25	> 75	0 to 25	

— patent publication US10266497B2 (ABIDE THERAPEUTICS, INC., priority 2017, dated 2019)
